Data as given in patent US9637469B2, “Pyridine derivative” (Teijin Pharma Limited, priority 2012, dated 2017).

What was measured:
human URAT1 = target: T1, human URAT1 (Homo sapiens, UniProt Q96S37); test: Test for inhibition of uric acid transport using human URAT1-expressing cells;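 further: three stars up to 0.2 µM two stars 0.2-2 µM one star 2-20 µM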; format: cell-based; settings: HEK 293 cells expressing human URAT1; 14C-labeled uric acid 25 μM; uptake 37° C. for 5 min
T1 construct: Full-length cDNA of human URAT1 (hURAT1)
T1 sequence (Q96S37 1-553): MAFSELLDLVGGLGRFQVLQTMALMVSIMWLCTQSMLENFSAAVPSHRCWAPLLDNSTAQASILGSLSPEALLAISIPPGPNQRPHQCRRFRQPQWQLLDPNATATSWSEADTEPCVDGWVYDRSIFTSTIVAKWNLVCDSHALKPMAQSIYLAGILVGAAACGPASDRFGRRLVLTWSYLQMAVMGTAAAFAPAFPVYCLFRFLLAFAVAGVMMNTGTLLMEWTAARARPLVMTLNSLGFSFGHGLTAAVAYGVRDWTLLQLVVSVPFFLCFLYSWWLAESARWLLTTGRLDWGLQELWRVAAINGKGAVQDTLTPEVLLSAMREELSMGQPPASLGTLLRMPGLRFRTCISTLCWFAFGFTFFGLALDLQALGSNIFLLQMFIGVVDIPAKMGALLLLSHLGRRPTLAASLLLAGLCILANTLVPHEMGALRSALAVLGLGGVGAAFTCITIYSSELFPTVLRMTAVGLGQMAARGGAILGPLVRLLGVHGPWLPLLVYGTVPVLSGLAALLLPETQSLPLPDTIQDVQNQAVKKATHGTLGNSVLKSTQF
Outline: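 IC50 values reflect inhibition of ¹⁴C-uric acid uptake (25 μM final, 5 min, 37 °C) by compound. Cells were HEK293 stably expressing full-length human URAT1, preincubated in Na-gluconate-substituted HBSS. Radioactivity in lysates was expressed relative to DMSO control as 100%.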

Cebus apella = test: Test for drug efficacy in Cebus apella (uric acid excretion rate); format: in vivo; settings: 3 mg/kg to 30 mg/kg in 0.5% methylcellulose into stomach via the nasal cavity, up to 24 hours
Method: A test compound (3 mg/kg to 30 mg/kg) prepared by suspending in a 0.5% methylcellulose solution was administered to Cebus apella into stomach via the nasal cavity using a disposable catheter and a syringe barrel. Blood samples were taken before administration and 30 minutes, 1 hour, 2 hours, 4 hours, 8 hours, 12 hours, and 24 hours after administration; and urine samples were collected for the time intervals of immediately to 4 hours after administration, from 4 hours to 8 hours after administration, from 8 hours to 16 hours after administration, and from 16 hours to 24 hours after administration. Concentrations of uric acid and creatinine in the blood and urine samples collected were measured by an automatic analyzer (JEOL Ltd.). Uric acid and creatine were measured using L-type Wako UA.F (Wako Pure Chemicals Industries, Ltd.) and L-type Creatine F (Wako Pure Chemicals Industries, Ltd.) respectively. Uric acid clearance was calculated from the uric acid concentrations in blood and urine and, similarly, creatinine clearance was calculated from the creatinine concentrations.

Row | SMILES | Inhibitory Activity (IC50 of uric acid transport inhibition) (human URAT1) | uricosuric effect (uric acid excretion rate) (Cebus apella)
1 | Cc1nc(-c2cncc(F)c2)n(Cc2cc(Cl)ccc2Cl)c1C(=O)O [Compound A134, 1-(2,5-dichlorobenzyl)-2-(5-fluoropyridin-3-yl)-4-methyl-1H-imidazole-5-carboxylic acid] | * * * | excellent uricosuric effect was confirmed
2 | Cc1nc(-c2cncc(Cl)c2)n(Cc2cccc3ccsc23)c1C(=O)O [Compound A233, 1-(benzo[b]thiophen-7-ylmethyl)-2-(5-chloropyridin-3-yl)-4-methyl-1H-imidazole-5-carboxylic acid] | * * * | excellent uricosuric effect was confirmed
3 | Cc1nc(-c2cccnc2)n(Cc2csc3cccc(Cl)c23)c1C(=O)O [Compound A7, 1-((4-chlorobenzo[b]thiophen-3-yl)methyl)-4-methyl-2-(pyridin-3-yl)-1H-imidazole-5-carboxylic acid] | * * | excellent uricosuric effect was confirmed
